# Experimental data reported in publication PMC4469266 (Bioorganic & medicinal chemistry letters, 2015).
# Biological target: dopamine D1 receptor (Rattus norvegicus, UniProt P18901)
# Assay: competition autoradiography with 3H-SCH […] in rat brain slices
# Chain of dopamine D1 receptor (P18901 whole entry): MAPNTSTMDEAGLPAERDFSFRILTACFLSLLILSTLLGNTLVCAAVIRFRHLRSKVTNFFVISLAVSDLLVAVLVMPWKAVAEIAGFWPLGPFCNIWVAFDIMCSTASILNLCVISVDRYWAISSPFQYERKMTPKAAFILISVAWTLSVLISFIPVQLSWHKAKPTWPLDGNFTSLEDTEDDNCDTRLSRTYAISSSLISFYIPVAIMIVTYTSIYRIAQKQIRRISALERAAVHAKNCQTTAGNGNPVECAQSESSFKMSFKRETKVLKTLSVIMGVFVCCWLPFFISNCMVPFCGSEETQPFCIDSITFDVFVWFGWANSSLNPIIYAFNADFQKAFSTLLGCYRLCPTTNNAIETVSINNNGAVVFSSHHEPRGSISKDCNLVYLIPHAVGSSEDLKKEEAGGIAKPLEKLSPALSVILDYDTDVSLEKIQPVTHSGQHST
compound,measurement,value
"CN1CCc2cc(Cl)c(O)cc2C(c2cccc(NC[C@H](F)[C@@H](O)[C@H](O)[C@H](O)CO)c2)C1 (stereo partly drawn) [compound 7, 7-chloro-8-hydroxy-3-methyl-l-(3’-fluorodeoxyglucaminophenyl)-2,3,4,5-tetrahydro-lH-3-benzazepine]",Ki,19.5 nM
